The record followed here is patent US20260078130A1, “NAMPT MODULATORS, PREPARATIONS, AND USES THEREOF” (SIRONAX LTD., priority 2022, published 2026).

The target in assay [1] is T1, human enzyme NAMPT (full length) (Homo sapiens, UniProt P43490).
T1 construct: human enzyme NAMPT (full length)
The assay can be described thus: NMN fluorescence biochemical assay (stimulation of NMN synthesis by NAMPT). The note with it: for EC50: concentration giving half-maximal activation, read-out: Enzymatic EC50; for Enzymatic Emax: fold change of maximal activation compared to DMSO. The method in brief: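 Full-length human NAMPT (100 nM) was preincubated 15 min at 37 °C with compound in 50 mM Tris-HCl pH 7.5, 10 mM MgCl2, 2 mM DTT, then reacted 1 h at 37 °C with 50 μM NAM, 100 μM PRPP, 4 mM ATP (stated solution concentrations). NMN was derivatised with acetophenone/KOH then formic acid and read at Ex/Em 382/445 nm; EC50 and Emax (fold over DMSO) reported.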

In assay [2] the test system is endogenous NAMPT in U2OS cells. Kind of assay: Cellular NAD+ modulation assay (NAD/NADH-Glo, U2OS cells). The note with it: Homo sapiens; for maximal fold induction: read-out: Cellular Emax. In kind it is cell-based. Summed up: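 NAD/NADH-Glo luminescence quantified NAD+ after acid treatment (60 °C, 15 min) and neutralization of DTAB lysates. Beforehand, U2OS cells seeded 16 h earlier received compound concentration series for 24 h at 37 °C. Values given as half-maximal activation concentration (EC50) and maximal fold change versus DMSO (Emax).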

Where [3] appears, read: NMN synthesis by purified human NAMPT (100 nM).
[4] abbreviates: 24 hours incubation with compound.
[5] abbreviates: NMN fluorescence assay, purified human NAMPT 100 nM.
[6] abbreviates: 24 hours incubation, cellular NAD+.

Where two headings read alike, the source gives them in different places.

T1 sequence (P43490 whole entry): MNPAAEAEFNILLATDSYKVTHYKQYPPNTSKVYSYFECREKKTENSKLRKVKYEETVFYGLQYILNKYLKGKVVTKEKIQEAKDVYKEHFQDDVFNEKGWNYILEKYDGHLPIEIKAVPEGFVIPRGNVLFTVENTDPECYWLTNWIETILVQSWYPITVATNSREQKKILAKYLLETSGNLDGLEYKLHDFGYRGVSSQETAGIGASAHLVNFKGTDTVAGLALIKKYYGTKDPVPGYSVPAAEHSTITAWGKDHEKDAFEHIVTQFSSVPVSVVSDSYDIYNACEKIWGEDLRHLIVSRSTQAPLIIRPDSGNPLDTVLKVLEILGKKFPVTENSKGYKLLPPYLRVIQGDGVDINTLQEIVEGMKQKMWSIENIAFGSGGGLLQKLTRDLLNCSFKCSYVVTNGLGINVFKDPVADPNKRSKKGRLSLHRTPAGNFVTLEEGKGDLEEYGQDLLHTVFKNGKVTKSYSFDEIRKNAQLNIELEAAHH

For `N#Cc1ccccc1CC1c2ccccc2C(=O)N1Cc1ccc2[nH]nnc2c1` (stereo not shown) [Compound 189, 2-((2-((1H-benzo[d][1,2,3]triazol-5-yl)methyl)-3-oxoisoindolin-1-yl)methyl)benzonitrile], in assay [1] (setting [3]), the EC50 lay within 500 to 5000 nM. The “Enzymatic Emax” value in assay [1] is recorded as “B (3≥B>2)”. Besides, in assay [2] (setting [4]), the EC50 is 500 to 5000 nM and the maximal fold induction was more than 1.5.

With `O=C1c2ccccc2C(Cc2ncccc2Br)N1CC1CCc2[nH]nnc2C1` (stereo not shown) [Compound 332, 3-((3-bromopyridin-2-yl)methyl)-2-((4,5,6,7-tetrahydro-1H-benzo[d][1,2,3]triazol-5-yl)methyl)isoindolin-1-one], the EC50 in assay [1] (setting [5]) fell in the range of 500 to 5000 nM. Moreover, the “Enzymatic Emax” value in assay [1] was “A (A>3)”. In assay [2] (setting [6]), the EC50 is less than 500 nM and the maximal fold induction was more than 1.5.

For `Cn1ncc(Cl)c1CC1c2ccccc2C(=O)N1Cc1cnc(N)s1` (stereo not shown) [Compound 628, 2-((2-aminothiazol-5-yl)methyl)-3-((4-chloro-1-methyl-1H-pyrazol-5-yl)methyl)isoindolin-1-one], the EC50 in assay [1] (setting [5]) is not below 5000 nM. Besides, in assay [1], the “Enzymatic Emax” value was “B (3≥B>2)”. Also, in assay [2] (setting [6]), the EC50 is less than 500 nM and the maximal fold induction was in the range of 1.2 to 1.5.

`Cn1c2ccccc2c(=O)n1Cc1ccc2[nH]c(=O)oc2c1` [Compound 46, 6-((1-methyl-3-oxo-1,3-dihydro-2H-indazol-2-yl)methyl)benzo[d]oxazol-2(3H)-one]: in assay [1] (setting [3]), the EC50 is not below 5000 nM. In addition, the “Enzymatic Emax” value in assay [1] was “B (3≥B>2)”. Also, in assay [2] (setting [4]), the EC50 lay within 5000 to 50000 nM and the maximal fold induction is more than 1.5.

As for `Cc1cncc(C#N)c1CC1c2ccccc2C(=O)N1CC1CC2(CNC(=O)O2)C1` (stereo not shown) [Compound 492, 5-methyl-4-((3-oxo-2-((6-oxo-5-oxa-7-azaspiro[3.4]octan-2-yl)methyl)isoindolin-1-yl)methyl)nicotinonitrile], the EC50 in assay [1] (setting [5]) was less than 500 nM. For the same compound, the “Enzymatic Emax” value in assay [1] was “B (3≥B>2)”. Moreover, in assay [2] (setting [6]), the EC50 is less than 500 nM and the maximal fold induction was more than 1.5.

Regarding `O=C1c2ccccc2C(Cc2ncccc2Br)N1C/C=C/c1c[nH]nn1` (stereo not shown) [Compound 328, (E)-2-(3-(1H-1,2,3-triazol-4-yl)allyl)-3-((3-bromopyridin-2-yl)methyl)isoindolin-1-one], in assay [1] (setting [5]), the EC50 was less than 500 nM. For the same compound, the “Enzymatic Emax” value in assay [1] is recorded as “B (3≥B>2)”. For the same compound, in assay [2] (setting [6]), the EC50 is less than 500 nM and the maximal fold induction is more than 1.5.

As for `O=C1c2ccccc2C(Cc2ncccc2Br)N1Cc1ccc2[nH]nnc2c1F` (stereo not shown) [Compound 330, 3-((3-bromopyridin-2-yl)methyl)-2-((4-fluoro-1H-benzo[d][1,2,3]triazol-5-yl)methyl)isoindolin-1-one], the EC50 in assay [1] (setting [5]) is less than 500 nM. Further, the “Enzymatic Emax” value in assay [1] is “A (A>3)”. Moreover, in assay [2] (setting [6]), the EC50 lay within 500 to 5000 nM and the maximal fold induction was more than 1.5.

`CC1c2cc(NC3CCCC3)ccc2C(=O)N1Cc1ccc2[nH]c(=O)oc2c1` (stereo not shown) [Compound 81, 6-((5-(cyclopentylamino)-3-methyl-1-oxoisoindolin-2-yl)methyl)benzo[d]oxazol-2(3H)-one]: the EC50 in assay [1] (setting [3]) is not below 5000 nM; in assay [2] (setting [4]), 500 to 5000 nM. For the same compound, the “Enzymatic Emax” value in assay [1] is given as “A (A>3)”. Moreover, the maximal fold induction in assay [2] (setting [4]) is 1.2 to 1.5.

For `CN1C[C@]2(C[C@H](CN3C(=O)c4ccccc4[C@@H]3Cc3c(Cl)cnn3C)C2)OC1=O` [Compound 551, (2s,4R)-2-(((S)-1-((4-chloro-1-methyl-1H-pyrazol-5-yl)methyl)-3-oxoisoindolin-2-yl)methyl)-7-methyl-5-oxa-7-azaspiro[3.4]octan-6-one], the EC50 in assay [1] (setting [5]) lay within 500 to 5000 nM. Moreover, the “Enzymatic Emax” value in assay [1] is “B (3≥B>2)”. Further, in assay [2] (setting [6]), the EC50 was less than 500 nM and the maximal fold induction is more than 1.5.

Regarding `O=C1c2ccc(N3CCCC3)cc2C(=O)N1Cc1ccc(O)cc1` [Compound 36, 2-(4-hydroxybenzyl)-5-(pyrrolidin-1-yl)isoindoline-1,3-dione], the EC50 in assay [1] (setting [3]) was in the range of 500 to 5000 nM. In addition, the “Enzymatic Emax” value in assay [1] is reported as “A (A>3)”. Also, in assay [2] (setting [4]), the EC50 was in the range of 500 to 5000 nM and the maximal fold induction lay within 1.2 to 1.5.

As to `Cn1c2ccccc2c(=O)n1Cc1ccc(O)cc1` [Compound 23, 2-(4-hydroxybenzyl)-1-methyl-1,2-dihydro-3H-indazol-3-one], the half-maximal effective concentration (EC50) is not below 5000 nM in assay [1] (setting [3]) and 500 to 5000 nM in assay [2] (setting [4]). Besides, the “Enzymatic Emax” value in assay [1] is “A (A>3)”. Also, the maximal fold induction in assay [2] (setting [4]) was more than 1.5.

Regarding `Cn1ncc(Cl)c1CC1c2cc(C3COC3)ccc2C(=O)N1CC1CC2(CNC(=O)O2)C1` (stereo not shown) [Compound 473, 2-((3-((4-chloro-1-methyl-1H-pyrazol-5-yl)methyl)-5-(oxetan-3-yl)-1-oxoisoindolin-2-yl)methyl)-5-oxa-7-azaspiro[3.4]octan-6-one], the EC50 in assay [1] (setting [5]) and in assay [2] (setting [6]) was 500 to 5000 nM throughout. In addition, in assay [1], the “Enzymatic Emax” value is “B (3≥B>2)”. Besides, the maximal fold induction in assay [2] (setting [6]) is more than 1.5.

Turning to `O=C1c2ccccc2C(Cc2cnccc2Cl)N1Cc1ccc2[nH]c(=O)oc2c1` (stereo not shown) [Compound 175, 6-((1-((4-chloropyridin-3-yl)methyl)-3-oxoisoindolin-2-yl)methyl)benzo[d]oxazol-2(3H)-one], the EC50 in assay [1] (setting [3]) and in assay [2] (setting [4]) was less than 500 nM in each case. In assay [1], the “Enzymatic Emax” value is listed as “B (3≥B>2)”. Also, the maximal fold induction in assay [2] (setting [4]) was more than 1.5.

As for `Cc1scnc1CC1c2ccccc2C(=O)N1Cc1ccc2[nH]c(=O)oc2c1` (stereo not shown) [Compound 217, 6-((1-((5-methylthiazol-4-yl)methyl)-3-oxoisoindolin-2-yl)methyl)benzo[d]oxazol-2(3H)-one], the EC50 in assay [1] (setting [3]) and in assay [2] (setting [4]) was 500 to 5000 nM each time. Moreover, the “Enzymatic Emax” value in assay [1] is given as “A (A>3)”. The maximal fold induction in assay [2] (setting [4]) is more than 1.5.

With `Cn1ncc(Cl)c1CC1c2ccccc2C(=O)N1CC1CC2(CNC(=S)O2)C1` (stereo not shown) [Compound 490, 3-((4-chloro-1-methyl-1H-pyrazol-5-yl)methyl)-2-((6-thioxo-5-oxa-7-azaspiro[3.4]octan-2-yl)methyl)isoindolin-1-one], the EC50 in assay [1] (setting [5]) is 500 to 5000 nM. Further, the “Enzymatic Emax” value in assay [1] is listed as “B (3≥B>2)”. Further, in assay [2] (setting [6]), the EC50 fell in the range of 500 to 5000 nM and the maximal fold induction is more than 1.5.

Consider `Cc1nc(Cl)c(CC2c3ccccc3C(=O)N2CC2CC3(CNC(=O)O3)C2)n1C` (stereo not shown) [Compound 526, 2-((1-((4-chloro-1,2-dimethyl-1H-imidazol-5-yl)methyl)-3-oxoisoindolin-2-yl)methyl)-5-oxa-7-azaspiro[3.4]octan-6-one], for which the EC50 in assay [1] (setting [5]) fell in the range of 500 to 5000 nM. Further, the “Enzymatic Emax” value in assay [1] is reported as “B (3≥B>2)”. Further, in assay [2] (setting [6]), the EC50 lay within 500 to 5000 nM and the maximal fold induction was more than 1.5.

As for `COc1ccc2c(c1)C(=O)N(Cc1ccc3[nH]nnc3c1)C2Cc1c(Cl)cnn1C` (stereo not shown) [Compound 414, 2-((1H-benzo[d][1,2,3]triazol-5-yl)methyl)-3-((4-chloro-1-methyl-1H-pyrazol-5-yl)methyl)-6-methoxyisoindolin-1-one], in assay [1] (setting [5]), the EC50 was in the range of 500 to 5000 nM. In assay [1], the “Enzymatic Emax” value is on record as “A (A>3)”. In addition, in assay [2] (setting [6]), the EC50 is less than 500 nM and the maximal fold induction was more than 1.5.

Take `NC(=O)c1ccc2c(c1)C(=O)N(Cc1ccc(O)cc1)C2=O` [Compound 38, 2-(4-hydroxybenzyl)-1,3-dioxoisoindoline-5-carboxamide]: in assay [1] (setting [3]), the EC50 is not below 5000 nM. The “Enzymatic Emax” value in assay [1] was “A (A>3)”. In addition, in assay [2] (setting [4]), the EC50 was 5000 to 50000 nM and the maximal fold induction is not above 1.2.

With `Cn1ncc(Cl)c1CC1c2cc(C#N)ccc2C(=O)N1Cc1ccc2[nH]nnc2c1` (stereo not shown) [Compound 327, 2-((1H-benzo[d][1,2,3]triazol-5-yl)methyl)-3-((4-chloro-1-methyl-1H-pyrazol-5-yl)methyl)-1-oxoisoindoline-5-carbonitrile], the EC50 in assay [1] (setting [5]) was in the range of 500 to 5000 nM. Besides, in assay [1], the “Enzymatic Emax” value is given as “A (A>3)”. Further, in assay [2] (setting [6]), the EC50 was less than 500 nM and the maximal fold induction is 1.2 to 1.5.

`N#Cc1cncc(C#N)c1CC1c2ccccc2C(=O)N1Cc1ccc2[nH]c(=O)oc2c1` (stereo not shown) [Compound 283, 4-((3-oxo-2-((2-oxo-2,3-dihydrobenzo[d]oxazol-6-yl)methyl)isoindolin-1-yl)methyl) pyridine-3,5-dicarbonitrile]: the EC50 in assay [1] (setting [3]) and in assay [2] (setting [4]) was less than 500 nM throughout. For the same compound, the “Enzymatic Emax” value in assay [1] is “A (A>3)”. In addition, the maximal fold induction in assay [2] (setting [4]) lay in the range of 1.2 to 1.5.

Take `O=C1c2cccc(Br)c2C(=O)N1Cc1ccc(O)cc1` [Compound 296, 4-bromo-2-(4-hydroxybenzyl)isoindoline-1,3-dione]: the EC50 in assay [1] (setting [3]) lay in the range of 500 to 5000 nM. Besides, the “Enzymatic Emax” value in assay [1] is “C (2≥C)”. Moreover, in assay [2] (setting [4]), the EC50 lay in the range of 500 to 5000 nM and the maximal fold induction lay in the range of 1.2 to 1.5.

Consider `O=C1c2ccccc2C(Cc2ncccc2Br)N1Cc1ccc2[nH]c(=O)oc2c1F` (stereo not shown) [Compound 224, 6-((1-((3-bromopyridin-2-yl)methyl)-3-oxoisoindolin-2-yl)methyl)-7-fluorobenzo[d]oxazol-2(3H)-one], for which the EC50 was less than 500 nM in assay [1] (setting [3]) and 500 to 5000 nM in assay [2] (setting [4]). For the same compound, in assay [1], the “Enzymatic Emax” value was “A (A>3)”. Besides, the maximal fold induction in assay [2] (setting [4]) was more than 1.5.

As usually defined, the EC50 is the concentration that produces a half-maximal response.
